Data taken from PubChem BioAssay (NCI).
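Tested at 5 concentrations; 48 h exposure; 96-well plates; endpoints linearly interpolated, else capped at highest concentration. GI50 = concentration required for 50% inhibition of growth. TGI is the concentration that stops growth completely.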

What was measured:
Test in all cases: NCI anticancer screen, dose series, 48 h
ACHN renal = tested on: ACHN renal
CCRF-CEM leukemia = tested on: CCRF-CEM leukemia
M14 melanoma = tested on: M14 melanoma
NCI-H522 lung = tested on: NCI-H522 lung
NCI/ADR-RES ovarian = tested on: NCI/ADR-RES ovarian
SK-MEL-5 melanoma = tested on: SK-MEL-5 melanoma
SK-OV-3 ovarian = tested on: SK-OV-3 ovarian
UO-31 renal = tested on: UO-31 renal
DLD-1 colon = tested on: DLD-1 colon
M19-MEL melanoma = tested on: M19-MEL melanoma

| Compound | TGI (ACHN renal) | TGI (CCRF-CEM leukemia) | TGI (M14 melanoma) | TGI (NCI-H522 lung) | TGI (NCI/ADR-RES ovarian) | TGI (SK-MEL-5 melanoma) | TGI (SK-OV-3 ovarian) | TGI (UO-31 renal) | TGI (DLD-1 colon) | TGI (M19-MEL melanoma) | GI50 (M19-MEL melanoma) |
| --- | --- | --- | --- | --- | --- | --- | --- | --- | --- | --- | --- |
| CC(C)/C(Cl)=N/OC(=O)Nc1ccc(Br)cc1 | 3.77 µM | 2.93 µM | 8.33 µM | 2.97 µM | 27.8 µM | 26.3 µM | 30.3 µM | 23.8 µM |  |  |  |
| CC(N=NNc1ccc(-c2nc3ccccc3[nH]2)cc1)C(=O)O (centres undefined) | > 100 µM | > 100 µM | > 100 µM | 75.7 µM | 90.6 µM | > 100 µM | > 100 µM | > 100 µM |  |  |  |
| COc1ccc(N2C(=O)C3c4[nH]c5ccc(OCc6ccccc6)cc5c4C4CCC(c5ccccc5)CC4C3C2=O)cc1 (centres undefined) | 41.5 µM | 26.8 µM | > 100 µM | > 44.6 µM | > 100 µM | > 93.7 µM | 22.6 µM | > 96.9 µM |  |  |  |
| O=C(O)CC(Cc1ccccc1Cl)C(=O)O (centres undefined) | > 100 µM | > 100 µM | > 100 µM | > 100 µM | > 100 µM | > 100 µM | > 100 µM | > 100 µM |  |  |  |
| c1ccc(-c2csc3c4ccccc4c4ccccc4[n+]23)cc1 | 30.6 µM | > 38.5 µM | 22 µM | 7.12 µM |  | 2.86 µM | 38.5 µM | 31.8 µM | 25.4 µM | 4.22 µM |  |
| N=C1C(=N)c2ccccc2-c2ccccc21.[Cl-].[Ru+2].c1ccc(-c2ccccn2)nc1.c1ccc(-c2ccccn2)nc1 | > 100 µM | > 100 µM | > 100 µM | > 100 µM |  | > 100 µM | > 100 µM | > 100 µM |  | > 100 µM | > 100 µM |
| C[C@@]1(O)C2CC3CC1(c1ccccc1)CC(/C3=N/O)/C2=N\O (some centres undefined) | > 100 µM | > 100 µM | > 100 µM | > 100 µM | > 100 µM | > 100 µM | > 100 µM | > 100 µM |  |  |  |
| COC(=O)C1=C(O)C(C(=O)OC)C2CC(=O)CC1C2(C)C (centres undefined) | > 100 µM | > 100 µM | > 100 µM | > 100 µM | > 100 µM | > 100 µM | > 100 µM | > 100 µM |  |  |  |
| CNC(C)(C)Cc1ccc(Cl)cc1 | > 100 µM | > 100 µM | > 100 µM | > 100 µM |  | > 100 µM | > 100 µM |  | > 100 µM | > 100 µM |  |
| c1ccc(/C(=N/Nc2nc3ccccc3s2)C2CCCCC2)nc1 | 19.3 µM | 15.4 µM | 27.7 µM | 7.32 µM | 10.3 µM | 18.9 µM | 18.7 µM | 15.4 µM |  |  |  |
| NC(=O)CNC(=O)[C@@H]1CC(OCCC(=O)O)CN1C(=O)C1CCCN1C(=O)OCc1ccccc1 (some centres undefined) | > 100 µM | > 100 µM | > 100 µM | > 100 µM | > 100 µM | > 100 µM | > 100 µM | > 100 µM |  |  |  |
| O=C(O)CCc1nc2c(n1-c1ccccc1)C(=O)c1ccccc1C2=O | > 100 µM | > 100 µM | > 100 µM | > 100 µM | > 100 µM | > 100 µM | > 100 µM | > 100 µM |  |  |  |
| C=CCOC(=O)N1c2ccc(O[Si](C)(C)C(C)(C)C)cc2[C@@]23O[C@@]24[C@@H]1C#C/C=C\C#C[C@]3(O)C(OC)(OC)C[C@@H]4C | > 100 µM | > 100 µM | > 100 µM | > 100 µM | > 100 µM | > 100 µM | > 100 µM | > 100 µM |  |  |  |
| CCOC(=O)c1ccc(-n2[nH]nc(C(N)=O)c2=O)cc1 | > 100 µM | > 100 µM | > 100 µM | > 100 µM | > 100 µM | > 100 µM | > 100 µM | > 100 µM |  |  |  |
